Here are results for two compounds from publication PMC12737022, “Evaluations of Sex Differences in Dosimetry in Rats Following Perfluorohexanesulfonamide (PFHxSA) Oral Exposure” (Toxics, 2025).

Several values for one entry are separate records, joined by “and”; a condition that tells them apart may be missing. Identical values can stand only once. Like-named read-outs stand apart in the source and are kept apart here.

One series concerns rat hepatocytes. Put plainly: In vitro hepatocyte metabolic stability assay, rat hepatocytes. The following applies: scaled from hepatocyte clearance at 1 μM. It is filed as in vitro ADME. The method, then: In vitro evaluations of PFHxSA and PFHxS hepatocyte metabolic stability were performed in rat hepatocytes, as previously described. Also, human hepatocyte clearance data were obtained from an earlier study. Native PFHxSA was obtained from Alpha Chemistry (purity > 98.4%; Holbrook, NY, USA), and PFHxS was obtained from Ark Pharma Scientific Limited (purity > 95%; Cambridge, UK). Pooled, mixed-sex cryopreserved hepatocyte suspensions were employed in a substrate depletion approach, using a final assay concentration of 1 μM. […]
Targeted, quantitative analysis of in vitro hepatocyte metabolic stability and plasma protein binding assay samples was conducted on a Waters (Milford, MA, USA) Xevo-TQS micro ultra-high-performance liquid chromatography tandem mass spectrometry system (UPLC-MS/MS), modified with a PFAS analysis kit. Samples were analyzed in negative ion mode with UniSpray ionization. Samples were analyzed in triplicate, with a reference compound included to evaluate assay performance. […]
Intrinsic hepatic clearance (Clint) and fraction unbound in plasma (fup) were calculated from the experimental point estimate data as described in Dobreniecki et al.. […] Renal clearance was calculated using the glomerular filtration rate (a species-dependent constant) and the fraction unbound in blood (fub), estimated by adjusting the experimental fup for blood/plasma partitioning. […]

Series [1] in a line: Liver-to-plasma partitioning (Kp). Type of series: in vivo, rat. The following applies: for Kp at 120 h: po. The method, then: Liver-to-plasma partitioning (Kp) for PFHxSA was assessed for each sex (SI Text S8, Table 6). There were no sex differences in PFHxSA Kp values. […] Refer to SI Table S15 for Kp results for individual rats. […]
Text S8 Liver-to-Plasma Partitioning Coefficient Calculation
Concentrations (µM) of PFHxSA in liver and plasma were used to calculate experimental liver-to-
plasma (Kp) partitioning values for both sexes across all dose levels using Equation E.
(E) K ௣ = Concentration௢௥௚௔௡Concentration௣௟௔௦௠௔

In the case of `O=S(=O)(O)C(F)(F)C(F)(F)C(F)(F)C(F)(F)C(F)(F)C(F)(F)F` [PFHxS, perfluorohexane sulfonic acid], the “Clhep (hepatic clearance)” value in the series with rat hepatocytes is reported as 0 L/h.

On to `NS(=O)(=O)C(F)(F)C(F)(F)C(F)(F)C(F)(F)C(F)(F)C(F)(F)F` [PFHxSA, Perfluorohexanesulfonamide], for which the “Female Partition Coefficient (Kp), liver-plasma” value is 0.516 and 0.491 and 0.293 and 0.378 in series [1] (PFHxSA 0.1 mg/kg/day oral 5 days, female, individual rats); 0.633 and 0.239 and 0.486 and 0.499 and 0.302 in series [1] (PFHxSA 0.3 mg/kg/day oral 5 days, female, individual rats); 0.197 and 0.224 and 0.122 and 0.325 in series [1] (PFHxSA 1 mg/kg/day oral 5 days, female, individual rats); 0.280 and 0.239 and 0.244 in series [1] (PFHxSA 3 mg/kg/day oral 5 days, female, individual rats); 0.145 and 0.119 and 0.113 (2×) in series [1] (PFHxSA 10 mg/kg/day oral 5 days, female, individual rats); 0.134 and 0.142 and 0.162 and 0.147 in series [1] (PFHxSA 30 mg/kg/day oral 5 days, female, individual rats). In addition, in series [1] (PFHxSA 100 mg/kg/day oral 5 days, female, individual rats), the “Female Partition Coefficient (Kp), liver-plasma” value is 0.187 and 0.344 and 0.214 and 0.213. Further, the “Male Partition Coefficient (Kp), liver-plasma” value in series [1] (PFHxSA 0.1 mg/kg/day oral 5 days, male, individual rats) was 0.662 and 0.433 and 0.319 and 0.860 and 0.744; in series [1] (PFHxSA 0.3 mg/kg/day oral 5 days, male, individual rats), 0.215 and 0.362 and 0.134 and 0.315 and 0.255; in series [1] (PFHxSA 1 mg/kg/day oral 5 days, male, individual rats) it was 0.233 and 0.174 and 0.293 and 0.249; in series [1] (PFHxSA 3 mg/kg/day oral 5 days, male, individual rats), 0.193 and 0.153 and 0.235 and 0.105 and 0.244; in series [1] (PFHxSA 10 mg/kg/day oral 5 days, male, individual rats) it was 0.249 and 0.178 and 0.194; in series [1] (PFHxSA 30 mg/kg/day oral 5 days, male, individual rats), 0.142 (2×) and 0.145. Also, the “Male Partition Coefficient (Kp), liver-plasma” value in series [1] (PFHxSA 100 mg/kg/day oral 5 days, male, individual rats) was 0.506 and 0.754 and 0.306 and 0.230 and 0.221. Also, the Kp (in general, the ratio of the level in a tissue or fluid to that in plasma or blood) at 24 h in series [1] (both sexes, Sprague Dawley (Crl:CD(SD)), rat, liver and plasma, oral, both sexes across all tested doses) fell in the range of 0.13 to 0.6. Further, the Kp at 120 h in series [1] (female, Sprague Dawley (Crl:CD(SD)), rat, liver and plasma, 0.1 mg/kg/day, PFHxSA 0.1 mg/kg/day oral 5 days, female, individual rats, read-out: Female Partition Coefficient (Kp), liver-plasma) worked out at 0.424; in series [1] (female, Sprague Dawley (Crl:CD(SD)), rat, liver and plasma, 0.3 mg/kg/day, PFHxSA 0.3 mg/kg/day oral 5 days, female rats, mean ± SD, read-out: PFHxSA liver-to-plasma Kp, Female Rats) it was 0.431 ± 0.16; in series [1] (female, Sprague Dawley (Crl:CD(SD)), rat, liver and plasma, 1 mg/kg/day, PFHxSA 1 mg/kg/day oral 5 days, female rats, mean ± SD, read-out: PFHxSA liver-to-plasma Kp, Female Rats) it was 0.21 ± 0.074; in series [1] (female, Sprague Dawley (Crl:CD(SD)), rat, liver and plasma, 3 mg/kg/day, PFHxSA 3 mg/kg/day oral 5 days, female rats, mean ± SD, read-out: PFHxSA liver-to-plasma Kp, Female Rats) it was 0.222 ± 0.048; in series [1] (female, Sprague Dawley (Crl:CD(SD)), rat, liver and plasma, 3 mg/kg/day, PFHxSA 3 mg/kg/day oral 5 days, female, individual rats, read-out: Female Partition Coefficient (Kp), liver-plasma), 0.158; in series [1] (female, Sprague Dawley (Crl:CD(SD)), rat, liver and plasma, 10 mg/kg/day, PFHxSA 10 mg/kg/day oral 5 days, female rats, mean ± SD, read-out: PFHxSA liver-to-plasma Kp, Female Rats), 0.135 ± 0.03. Moreover, the Kp at 120 h in series [1] (female, Sprague Dawley (Crl:CD(SD)), rat, liver and plasma, 10 mg/kg/day, PFHxSA 10 mg/kg/day oral 5 days, female, individual rats, read-out: Female Partition Coefficient (Kp), liver-plasma) came out at 0.183; in series [1] (female, Sprague Dawley (Crl:CD(SD)), rat, liver and plasma, 30 mg/kg/day, PFHxSA 30 mg/kg/day oral 5 days, female rats, mean ± SD, read-out: PFHxSA liver-to-plasma Kp, Female Rats), 0.148 ± 0.011; in series [1] (female, Sprague Dawley (Crl:CD(SD)), rat, liver and plasma, 30 mg/kg/day, PFHxSA 30 mg/kg/day oral 5 days, female, individual rats, read-out: Female Partition Coefficient (Kp), liver-plasma) it was 0.154; in series [1] (female, Sprague Dawley (Crl:CD(SD)), rat, liver and plasma, 100 mg/kg/day, PFHxSA 100 mg/kg/day oral 5 days, female rats, mean ± SD, read-out: PFHxSA liver-to-plasma Kp, Female Rats), 0.222 ± 0.072; in series [1] (female, Sprague Dawley (Crl:CD(SD)), rat, liver/plasma, 0.1 mg/kg/day, PFHxSA 0.1 mg/kg/day oral 5 days, female rats, mean ± SD, read-out: PFHxSA liver-to-plasma Kp, Female Rats) it was 0.42 ± 0.09; in series [1] (male, Sprague Dawley (Crl:CD(SD)), rat, liver and plasma, 1 mg/kg/day, PFHxSA 1 mg/kg/day oral 5 days, male rats, mean ± SD, read-out: PFHxSA liver-to-plasma Kp, Male Rats), 0.223 ± 0.053. The Kp at 120 h was 0.166 in series [1] (male, Sprague Dawley (Crl:CD(SD)), rat, liver and plasma, 1 mg/kg/day, PFHxSA 1 mg/kg/day oral 5 days, male, individual rats, read-out: Male Partition Coefficient (Kp), liver-plasma); 0.186 ± 0.058 in series [1] (male, Sprague Dawley (Crl:CD(SD)), rat, liver and plasma, 3 mg/kg/day, PFHxSA 3 mg/kg/day oral 5 days, male rats, mean ± SD, read-out: PFHxSA liver-to-plasma Kp, Male Rats); 0.189 ± 0.041 in series [1] (male, Sprague Dawley (Crl:CD(SD)), rat, liver and plasma, 10 mg/kg/day, PFHxSA 10 mg/kg/day oral 5 days, male rats, mean ± SD, read-out: PFHxSA liver-to-plasma Kp, Male Rats); 0.191 in series [1] (male, Sprague Dawley (Crl:CD(SD)), rat, liver and plasma, 10 mg/kg/day, PFHxSA 10 mg/kg/day oral 5 days, male, individual rats, read-out: Male Partition Coefficient (Kp), liver-plasma); 0.144 ± 0.0075 in series [1] (male, Sprague Dawley (Crl:CD(SD)), rat, liver and plasma, 30 mg/kg/day, PFHxSA 30 mg/kg/day oral 5 days, male rats, mean ± SD, read-out: PFHxSA liver-to-plasma Kp, Male Rats); 0.156 in series [1] (male, Sprague Dawley (Crl:CD(SD)), rat, liver and plasma, 30 mg/kg/day, PFHxSA 30 mg/kg/day oral 5 days, male, individual rats, read-out: Male Partition Coefficient (Kp), liver-plasma). The partition ratio (Kp) at 120 h in series [1] (male, Sprague Dawley (Crl:CD(SD)), rat, liver and plasma, 100 mg/kg/day, PFHxSA 100 mg/kg/day oral 5 days, male rats, mean ± SD, read-out: PFHxSA liver-to-plasma Kp, Male Rats) was 0.403 ± 0.23; in series [1] (male, Sprague Dawley (Crl:CD(SD)), rat, liver/plasma, 0.1 mg/kg/day, PFHxSA 0.1 mg/kg/day oral 5 days, male rats, mean ± SD, read-out: PFHxSA liver-to-plasma Kp, Male Rats), 0.604 ± 0.22; in series [1] (male, Sprague Dawley (Crl:CD(SD)), rat, liver/plasma, 0.3 mg/kg/day, PFHxSA 0.3 mg/kg/day oral 5 days, male rats, mean ± SD, read-out: PFHxSA liver-to-plasma Kp, Male Rats) it was 0.256 ± 0.088. In addition, in the series on rat hepatocytes, the “Clhep (hepatic clearance)” value is reported as 0.0000449 L/h.
